# What was measured:
# [1] = ABTS antioxidant assay (radical scavenging); details: radical cation ABTS•+ in methanol, 60 min in the dark, absorbance at 745 nm, triplicate
# Experimental: (§1) The antioxidant activity of compound 2 was measured using ABTS antioxidant assay and DPPH radical scavenging assay using ascorbic acid and quercetin as standard compounds. The antioxidant activity of compound 1 was not determined here, as it was isolated as a by-product in trace amounts. Furthermore, this compound is reported, and thus, it was believed unnecessary to pursue its antioxidant capacity.
# Equal amounts of 7 mM ABTS (2,2′-azino-bis(3-ethylbenzothiazoline-6-sulphonic acid)) stock solution and 2.45 mM potassium persulfate stock solution were mixed and stored at 0 °C for 12 h in the dark to produce the radical cation ABTS^•+. The prepared radical cation ABTS^•+ solution was diluted with methanol so that the UV absorption value was below 1.000 at 745 nm. The compound 2 and reference standards, including ascorbic acid and quercetin, were dissolved in methanol to obtain 2000 µM stock solutions. Then, these solutions were diluted with methanol to 1000, 500, 250, 125, 62.5, 31.3, 15.6, 7.81, 3.91, 1.95, 0.977, 0.488, 0.244, 0.122, and 0.0610 µM solutions. Then, 0.9 mL of the ABTS^•+ solution and 0.1 mL of solutions of compound 2 or standard materials prepared above were mixed in a test tube and kept in the dark for 60 min. After 60 min incubation, the UV absorption at 745 nm was measured. All experiments were performed in triplicate. The radical scavenging rates were obtained from these UV absorption data, and the resulting IC50 values were calculated using Origin 8 (Northampton, MA, USA). Percentage (%) of ABTS radical scavenging = [(A0 − A1)/A0] × 100(1) where A0 was the absorbance of the control, and A1 was the absorbance of the treated sample.
# [2] = DPPH radical scavenging assay; details: DPPH in methanol, 30 min in the dark, absorbance at 517 nm, triplicate
# Experimental: as §1
# The 100 µM DPPH stock solution was prepared in absolute methanol. The 2.0 mM stock solutions of compound 2 and the reference standards ascorbic acids and quercetin were also prepared in absolute methanol. Then, these solutions were diluted with methanol to 1000, 500, 250, 100, 50, 25, 12.5, 6.25, 3.13, 1.56, 0.781, 0.391, 0.195, 0.0977, 0.0488, 0.0244, and 0.0122 µM solutions. Afterwards, 0.7 mL of the DPPH solution and 0.7 mL of solutions of compound 2 or standard materials prepared above were mixed in a test tube and kept in the dark for 30 min. After 30 min incubation, the UV absorption at 517 nm was measured. All experiments were performed in triplicate. The radical scavenging rates were obtained from these UV absorption data, and the resulting IC50 values were calculated using Origin 8. Percentage (%) of DPPH radical scavenging = [(A0 − A1)/A0] × 100(2) where A0 was the absorbance of the control, and A1 was the absorbance of the treated sample.
# [3] = system: A549 cells; assay: Cell cytotoxicity assay (MTT); type: cell-based
# Experimental: The A549 cells ([…]) were used in the cytotoxicity assay (MTT (3-(4,5-dimethylthiazol-2-yl)-2,5-diphenyltetrazolium bromide) assay) of compound 2. The A549 cells were grown in an incubator at 37 °C and 5% CO2 using DMEM media containing 2 mM glutamine and 10% FBS. Cells were trypsinized for seeding at 70–90% of cell confluency. About 7000 A549 cells per well were seeded in 96-well plates and incubated for 24 h at 37 °C in the presence of 5% CO2. Then, the media was replaced with the media containing compound 2 at various concentrations, including 0.1, 10, 25, and 50 µM, and incubated for another 24 h. Dimethyl sulfoxide (DMSO) was used as a vehicle. […] After 24 h incubation, the media was replaced with 200 µL of fresh media containing MTT solution and incubated for four hours at 37 °C. The absorbance was recorded at 570 nm to evaluate the cell viability. Each experiment was executed three times. Origin software was used for the data analysis.
IC50 [1],IC50 [2],SMILES,"decrease in cell growth compared to the control ([3]; 24 h treatment, 50 µM, MTT, DMSO control)","cytotoxicity (cell death) ([3]; 24 h treatment, 0.1–25 µM, MTT, DMSO control)",cell cytotoxicity ([3]; at 25 µM),cytotoxicity ([3]; below 25 µM)
13.2 ± 0.45 µM,28.7 ± 0.65 µM,"O=C1O[C@H]([C@@H](O)CO)C(O)=C1O [Ascorbic acid, ascorbic acid]",–,–,–,–
3.57 ± 0.54 µM,4.02 ± 0.058 µM,"O=c1c(O)c(-c2ccc(O)c(O)c2)oc2cc(O)cc(O)c12 [Quercetin, quercetin]",–,–,–,–

SMILES,IC50 [1],IC50 [2],"decrease in cell growth compared to the control ([3]; 24 h treatment, 50 µM, MTT, DMSO control)","cytotoxicity (cell death) ([3]; 24 h treatment, 0.1–25 µM, MTT, DMSO control)",cell cytotoxicity ([3]; at 25 µM),cytotoxicity ([3]; below 25 µM)
"C/C(=N\N=C(/C)c1ccc(O)cc1O)c1ccc(O)cc1O [Compound 2, 4,4′-((1E,1′E)-hydrazine-1,2-diylidenebis(ethan-1-yl-1-ylidene))bis(benzene-1,3-diol)]",4.3 ± 0.21 µM,81.06 ± 0.72 µM,~40%,did not show significant cell death,did not show any cell cytotoxicity,almost no cytotoxicity

# Source: article PMC9686989, “Exploration of Molecular Structure, DFT Calculations, and Antioxidant Activity of a Hydrazone Derivative” (Antioxidants, 2022)
